Source: ChEMBL document CHEMBL6121004, “Design, synthesis, and biological evaluation of Ponatinib-based N-Phenylpyrimidine-2-amine derivatives as novel fibroblast growth factor receptor 4 (FGFR4) selective inhibitors” (Eur J Med Chem, 2025)
Activity calls are given as the source filed them. The rule behind the calls is not given here.

Legend:
[1] = GSH reactivity in potassium phosphate buffer at pH 7.4 assessed as half life at 1 uM measured at 2 to 1440 mins by LC-MS/MS analysis; format: physicochemical; settings: potassium phosphate buffer with GSH, time 2-1440 min
[2] = Toxicity in male nude mouse implanted with human Huh-7 cells assessed as liver damage at 12.5 to 50 mg/kg, ip administered for 15 days; format: organism-based; settings: in vivo, 360 h, dose 12.5-50 mg/kg, time 15 day
Hep 3B2 [3] = assay: Induction of apoptosis in human Hep3B cells assessed as necrotic cells at 0.25 uM incubated for 48 hrs by annexin V-FITC/propidium iodide staining based flow cytometry analysis (reference value: 5.20%); format: functional
Hep 3B2 [4] = assay: Induction of apoptosis in human Hep3B cells assessed as late apoptotic cells at 0.25 uM incubated for 48 hrs by annexin V-FITC/propidium iodide staining based flow cytometry analysis (reference value: 5.20%); format: functional
Huh-7 [5] = assay: Antiproliferative activity against human Huh-7 cells assessed as cell viability at […] pre-incubated with compound for 12 hrs followed by compound washout and measured after 4 days; format: functional, cell-based; settings: dose 1.6 µM
Hep 3B2 [6] = assay: Induction of apoptosis in human Hep3B cells assessed as viable cells at 0.25 uM incubated for 48 hrs by annexin V-FITC/propidium iodide staining based flow cytometry analysis (reference value: 84.91%); format: functional; settings: read-out: Activity
Hep 3B2 [7] = assay: Effect on FGFR4 level in human Hep3B cells at 0.25 to 1 uM incubated for 48 hrs by Western blot analysis; format: functional, cell-based; settings: dose 0.25-1 µM
Huh-7 [8] = assay: Induction of apoptosis in human Huh-7 cells assessed as early apoptotic cells at 0.5 uM incubated for 48 hrs by annexin V-FITC/propidium iodide staining based flow cytometry analysis (reference value: 4.59%); format: functional
Hep 3B2 [9] = assay: Induction of apoptosis in human Hep3B cells assessed as necrotic cells at 0.5 uM incubated for 48 hrs by annexin V-FITC/propidium iodide staining based flow cytometry analysis (reference value: 5.20%); format: functional
Hep 3B2 [10] = assay: Effect on MAPK level in human Hep3B cells at 0.25 to 1 uM incubated for 48 hrs by Western blot analysis; format: functional, cell-based; settings: dose 0.25-1 µM
Huh-7 [11] = assay: Downregulation of FAK level in human Huh-7 cells at 0.25 to 1 uM incubated for 48 hrs by Western blot analysis; format: functional, cell-based; settings: dose 0.25-1 µM
Huh-7 [12] = assay: Induction of apoptosis in human Huh-7 cells assessed as early apoptotic cells at 0.1 uM incubated for 48 hrs by annexin V-FITC/propidium iodide staining based flow cytometry analysis (reference value: 4.59%); format: functional
Huh-7 [13] = assay: Induction of apoptosis in human Huh-7 cells assessed as necrotic cells at 0.1 uM incubated for 48 hrs by annexin V-FITC/propidium iodide staining based flow cytometry analysis (reference value: 5.20%); format: functional
Hep 3B2 [14] = assay: Induction of apoptosis in human Hep3B cells assessed as late apoptotic cells at 1 uM incubated for 48 hrs by annexin V-FITC/propidium iodide staining based flow cytometry analysis (reference value: 5.20%); format: functional
Homo sapiens = species: Homo sapiens; assay: Inhibition of SRC (unknown origin) at 1 uM relative to control
[15] = MRT (0 to t) in BALB/c male mouse at 10 mg/kg, po measured upto 24 hrs by LC-MS/MS analysis; format: ADME, organism-based; settings: in vivo
Hep 3B2 [16] = assay: Induction of apoptosis in human Hep3B cells assessed as late apoptotic cells at 0.5 uM incubated for 48 hrs by annexin V-FITC/propidium iodide staining based flow cytometry analysis (reference value: 5.20%); format: functional
[17] = Cmax in BALB/c male mouse at 10 mg/kg, po measured upto 24 hrs by LC-MS/MS analysis; format: ADME, organism-based; settings: in vivo
[18] = Clearance in BALB/c male mouse at 1 mg/kg, iv measured upto 24 hrs by LC-MS/MS analysis; format: ADME, organism-based; settings: in vivo
Hep 3B2 [19] = assay: Induction of apoptosis in human Hep3B cells assessed as early apoptotic cells at 1 uM incubated for 48 hrs by annexin V-FITC/propidium iodide staining based flow cytometry analysis (reference value: 4.69%); format: functional
Huh-7 [20] = assay: Induction of apoptosis in human Huh-7 cells assessed as early apoptotic cells at 1 uM incubated for 48 hrs by annexin V-FITC/propidium iodide staining based flow cytometry analysis (reference value: 4.59%); format: functional
[21] = Volume of distribution at steady state in BALB/c male mouse at 1 mg/kg, iv measured upto 24 hrs by LC-MS/MS analysis; format: ADME, organism-based; settings: in vivo, read-out: Vdss
Huh-7 [22] = assay: Induction of apoptosis in human Huh-7 cells assessed as late apoptotic cells at 0.5 uM incubated for 48 hrs by annexin V-FITC/propidium iodide staining based flow cytometry analysis (reference value: 5.20%); format: functional
[23] = Oral bioavailability in BALB/c male mouse at 10 mg/kg measured upto 24 hrs by LC-MS/MS analysis; format: ADME, organism-based; settings: in vivo
MDA-MB-231 = assay: cells; settings: Homo sapiens, MDA-MB-231, 72 h
Description: Antiproliferative activity against human MDA-MB-231 cells assessed as inhibition of cell proliferation incubated for 72 hrs by MTT assay

[24] = Antiproliferative activity against human L02 cells assessed as inhibition of cell proliferation incubated for 72 hrs by MTT assay; format: toxicity, cell-based
[25] = AUC (0 to t) in BALB/c male mouse at 10 mg/kg, po measured upto 24 hrs by LC-MS/MS analysis; format: ADME, organism-based; settings: in vivo
Hep 3B2 [26] = assay: Induction of apoptosis in human Hep3B cells assessed as early apoptotic cells at 0.5 uM incubated for 48 hrs by annexin V-FITC/propidium iodide staining based flow cytometry analysis (reference value: 4.69%); format: functional
Hep 3B2 [27] = assay: Induction of apoptosis in human Hep3B cells assessed as viable cells at 1 uM incubated for 48 hrs by annexin V-FITC/propidium iodide staining based flow cytometry analysis (reference value: 84.91%); format: functional; settings: read-out: Activity
[28] = Toxicity in male nude mouse implanted with human Huh-7 cells assessed as body weight loss at 12.5 to 50 mg/kg, ip administered for 15 days; format: organism-based; settings: in vivo, 360 h, dose 12.5-50 mg/kg, time 15 day
[29] = target: Tyrosine-protein kinase ABL2 (Homo sapiens) (UniProt P42684); assay: Inhibition of ABL2 (unknown origin) at 1 uM relative to control
Huh-7 [30] = assay: Antitumor activity against human Huh-7 cells xenografted in nude mouse assessed as tumor growth inhibition at 50 mg/kg, ip administered for 15 days; format: functional; settings: Huh-7, 360 h, time 15 day, read-out: TGI
[31] = Half life in BALB/c male mouse at 10 mg/kg, po measured upto 24 hrs by LC-MS/MS analysis; format: ADME, organism-based; settings: in vivo
Hep 3B2 [32] = assay: cells; settings: Homo sapiens, Hep3B, 72 h
Description: Antiproliferative activity against human Hep3B cells assessed as inhibition of cell proliferation incubated for 72 hrs by MTT assay

Huh-7 [33] = assay: Induction of apoptosis in human Huh-7 cells assessed as late apoptotic cells at 1 uM incubated for 48 hrs by annexin V-FITC/propidium iodide staining based flow cytometry analysis (reference value: 5.20%); format: functional
[34] = AUC (0 to t) in BALB/c male mouse at 1 mg/kg, iv measured upto 24 hrs by LC-MS/MS analysis; format: ADME, organism-based; settings: in vivo
[35] = target: Platelet-derived growth factor receptor alpha (Homo sapiens) (UniProt P16234); assay: Inhibition of PDGFRalpha (unknown origin) at 1 uM relative to control
Chain of Platelet-derived growth factor receptor alpha (Homo sapiens) (P16234 whole entry): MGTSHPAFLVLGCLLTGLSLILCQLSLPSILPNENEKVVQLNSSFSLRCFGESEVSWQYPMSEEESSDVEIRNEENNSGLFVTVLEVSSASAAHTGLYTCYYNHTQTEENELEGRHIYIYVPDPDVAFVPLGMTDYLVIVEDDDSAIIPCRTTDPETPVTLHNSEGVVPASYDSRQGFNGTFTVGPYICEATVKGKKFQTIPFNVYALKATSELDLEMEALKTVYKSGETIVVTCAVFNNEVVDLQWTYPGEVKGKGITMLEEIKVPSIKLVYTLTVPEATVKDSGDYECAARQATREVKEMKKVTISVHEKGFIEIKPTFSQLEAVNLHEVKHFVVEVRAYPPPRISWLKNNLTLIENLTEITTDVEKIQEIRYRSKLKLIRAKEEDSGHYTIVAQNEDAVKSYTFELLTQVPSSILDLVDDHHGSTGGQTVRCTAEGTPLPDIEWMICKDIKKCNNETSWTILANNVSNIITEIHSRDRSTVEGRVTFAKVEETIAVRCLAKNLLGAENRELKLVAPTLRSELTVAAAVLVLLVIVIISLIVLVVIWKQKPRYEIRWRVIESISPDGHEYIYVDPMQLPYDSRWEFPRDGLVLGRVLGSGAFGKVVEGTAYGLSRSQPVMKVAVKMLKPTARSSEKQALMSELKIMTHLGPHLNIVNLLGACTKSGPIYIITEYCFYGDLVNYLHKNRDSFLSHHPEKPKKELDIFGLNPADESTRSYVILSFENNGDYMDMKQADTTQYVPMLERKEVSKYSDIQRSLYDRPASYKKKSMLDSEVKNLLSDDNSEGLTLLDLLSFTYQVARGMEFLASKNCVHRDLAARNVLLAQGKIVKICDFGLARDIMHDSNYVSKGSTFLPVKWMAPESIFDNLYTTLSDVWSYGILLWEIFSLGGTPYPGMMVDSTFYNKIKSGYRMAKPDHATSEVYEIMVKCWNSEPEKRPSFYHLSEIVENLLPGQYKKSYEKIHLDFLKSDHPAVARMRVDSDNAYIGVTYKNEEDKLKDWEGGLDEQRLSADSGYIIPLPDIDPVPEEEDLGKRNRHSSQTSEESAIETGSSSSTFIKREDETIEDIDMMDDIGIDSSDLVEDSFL

Chain of Tyrosine-protein kinase ABL2 (Homo sapiens) (P42684 whole entry): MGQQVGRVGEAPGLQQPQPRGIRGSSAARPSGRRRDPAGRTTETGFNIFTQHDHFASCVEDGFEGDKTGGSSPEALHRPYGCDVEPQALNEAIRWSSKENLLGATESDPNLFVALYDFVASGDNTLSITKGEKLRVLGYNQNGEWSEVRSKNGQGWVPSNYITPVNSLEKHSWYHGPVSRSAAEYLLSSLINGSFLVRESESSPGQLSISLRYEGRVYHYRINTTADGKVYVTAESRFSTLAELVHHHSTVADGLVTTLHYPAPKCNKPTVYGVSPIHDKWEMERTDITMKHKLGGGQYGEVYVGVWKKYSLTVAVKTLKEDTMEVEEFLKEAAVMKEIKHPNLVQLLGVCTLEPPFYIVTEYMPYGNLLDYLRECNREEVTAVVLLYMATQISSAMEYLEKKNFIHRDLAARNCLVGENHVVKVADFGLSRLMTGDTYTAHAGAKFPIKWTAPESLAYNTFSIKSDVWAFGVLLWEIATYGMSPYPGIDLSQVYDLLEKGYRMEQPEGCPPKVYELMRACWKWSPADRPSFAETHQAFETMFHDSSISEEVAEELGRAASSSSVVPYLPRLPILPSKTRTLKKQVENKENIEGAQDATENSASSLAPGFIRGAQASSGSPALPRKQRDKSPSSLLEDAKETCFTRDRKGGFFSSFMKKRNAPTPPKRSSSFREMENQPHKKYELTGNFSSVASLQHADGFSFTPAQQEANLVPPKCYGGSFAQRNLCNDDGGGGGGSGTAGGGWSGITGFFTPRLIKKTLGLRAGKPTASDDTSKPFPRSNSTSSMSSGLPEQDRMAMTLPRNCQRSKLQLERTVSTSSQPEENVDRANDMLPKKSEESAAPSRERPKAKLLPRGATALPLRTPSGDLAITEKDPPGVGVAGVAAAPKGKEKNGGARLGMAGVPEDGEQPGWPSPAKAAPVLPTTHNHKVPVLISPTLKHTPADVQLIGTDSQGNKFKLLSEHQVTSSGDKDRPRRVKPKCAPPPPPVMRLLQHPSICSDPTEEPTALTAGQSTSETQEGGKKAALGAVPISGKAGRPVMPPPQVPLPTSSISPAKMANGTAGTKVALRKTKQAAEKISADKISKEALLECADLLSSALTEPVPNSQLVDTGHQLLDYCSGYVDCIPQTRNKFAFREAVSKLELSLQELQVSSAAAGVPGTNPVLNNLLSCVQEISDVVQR

SMILES: C=CC(=O)Nc1cccc(C)c1Nc1ncc(C#Cc2cccc(C(=O)Nc3ccc(CN4CCN(C)CC4)c(C(F)(F)F)c3)c2)cn1
- half-life at 1 µM [1]: 1.35 h
- Activity [2]: Non-toxic
- Activity (Hep 3B2 [3]): 5.62%
- Activity (Hep 3B2 [4]): 9.17%
- Activity (Huh-7 [5]): Active
- viability at 0.25 µM (Hep 3B2 [6]): 80.8%
- Activity (Hep 3B2 [7]): Active
- Activity (Huh-7 [8]): 5.07%
- Activity (Hep 3B2 [9]): 6.93%
- Activity (Hep 3B2 [10]): Active
- Activity (Huh-7 [11]): Active
- Activity (Huh-7 [12]): 3.69%
- Activity (Huh-7 [13]): 2.37%
- Activity (Hep 3B2 [14]): 22.07%
- inhibition (Homo sapiens): < 70%
- MRT last at 24 h [15]: 2.65 h
- Activity (Hep 3B2 [16]): 18.41%
- Cmax [17]: 91.3 ng/mL
- clearance [18]: 67.9 mL/min/kg
- Activity (Hep 3B2 [19]): 9.61%
- Activity (Huh-7 [20]): 2.12%
- Vd [21]: 3.52 L/kg
- Activity (Huh-7 [22]): 11.2%
- bioavailability [23]: 17.8%
- IC50 (MDA-MB-231): 5.6 µM
- IC50 at 72 h [24]: > 10 µM
- AUC(0-t) at 24 h [25]: 318 ng·h/mL
- Activity (Hep 3B2 [26]): 5.73%
- viability at 1 µM (Hep 3B2 [27]): 63.2%
- Activity [28]: Non-toxic
- inhibition [29]: < 70%
- inhibition in vivo at 50 mg/kg (Huh-7 [30]): 69.8%
- half-life [31]: 1.4 h
- IC50 (Hep 3B2 [32]): 0.07 µM
- Activity (Huh-7 [33]): 25.23%
- AUC(0-t) at 24 h [34]: 241 ng·h/mL
- inhibition [35]: < 70%
